Results reported in patent publication US11020398B2, “Amino-pyrrolopyrimidinone compounds and methods of use thereof” (ArQule, Inc., priority 2016, dated 2021).

How the values were obtained:
[1] = biological target: full-length activated BTK mutant C481S (Homo sapiens (Human), UniProt Q06187, C481S); test: AlphaScreen assay, BTK mutant C481S; format: biochemical; conditions: for inhibition at 10 µM: read-out: BTK-C481S % @ 10 uM, @ 10 uM
Protocol: (§1) The activated BTK was frozen in 50 μl aliquots (125-150 μg/ml).
(§2) BTK activity was assayed using a PLCγ2-derived biotinylated peptide substrate (biotin-[…]-OH) and AlphaScreen™ (Amplified Luminescent Proximity Homogeneous Assay) technology. The extent of peptide phosphorylation was determined by using acceptor beads conjugated to phosphotyrosine antibody that recognized the phosphorylated peptide and donor beads conjugated to streptavidin that binds to the biotin on the peptide. Excitation of the donor beads converted ambient oxygen to excited singlet oxygen which when in close proximity to acceptor beads, reacted with acceptor beads resulting in signal amplification.
(§3) Test inhibitors and controls were prepared in 10% DMSO at 10-fold the desired final concentration and added to each well of a reaction plate (Corning 96-well half-area solid white nonbinding surface plate) in a volume of 2.5 μl. […] The plate was incubated for 120 min at room temperature and the reaction stopped by the addition of 10 μl stop/detection mixture containing 35 mM EDTA, 50 ug/ml AlphaScreen™ Streptavidin Donor beads (final concentration is 500 ng/well) and AlphaScreen™ Phospho-tyrosine (P-Tyr-100) Acceptor beads (final concentration is 500 ng/well) under green light conditions. The plate was incubated overnight at room temperature in the dark and the plates read on the BMG PolarStar Omega ([…], Gain=4000). Data were archived and analyzed with a 4-parameter fit to generate IC50 values using the CDD Vault from Collaborative Drug Discovery.

[2] = biological target: full-length activated BTK (wildtype) (Homo sapiens (Human), UniProt Q06187); test: AlphaScreen assay, wild-type BTK; format: biochemical
full-length activated BTK (wildtype), sequence (Q06187 whole entry): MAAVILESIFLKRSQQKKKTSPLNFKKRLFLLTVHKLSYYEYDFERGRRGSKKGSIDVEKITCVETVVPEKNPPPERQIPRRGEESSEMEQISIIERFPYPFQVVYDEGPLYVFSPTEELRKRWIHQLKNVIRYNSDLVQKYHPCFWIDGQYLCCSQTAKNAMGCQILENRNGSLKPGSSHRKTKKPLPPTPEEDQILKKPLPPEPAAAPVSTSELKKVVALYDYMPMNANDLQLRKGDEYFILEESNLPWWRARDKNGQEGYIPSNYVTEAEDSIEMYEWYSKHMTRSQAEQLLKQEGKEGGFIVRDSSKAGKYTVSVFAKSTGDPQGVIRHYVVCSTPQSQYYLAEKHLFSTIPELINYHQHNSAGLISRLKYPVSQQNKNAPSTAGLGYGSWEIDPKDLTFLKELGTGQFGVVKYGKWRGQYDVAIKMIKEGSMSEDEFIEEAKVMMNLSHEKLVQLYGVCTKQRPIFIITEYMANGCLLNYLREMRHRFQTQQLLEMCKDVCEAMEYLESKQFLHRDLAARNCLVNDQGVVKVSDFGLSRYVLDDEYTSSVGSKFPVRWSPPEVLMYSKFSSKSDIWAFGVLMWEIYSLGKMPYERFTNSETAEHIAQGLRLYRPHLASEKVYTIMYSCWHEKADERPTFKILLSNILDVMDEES
Protocol: as §1, §2, §3

full-length activated BTK mutant C481S, sequence (Q06187 whole entry C481S): as the sequence (Q06187 whole entry) above, with C481S counted along it

| SMILES | inhibition at 10 µM [1] [%] | inhibition at 10 µM ([2]; read-out: BTK % @ 10 uM, @ 10 uM) [%] | IC50 [1] [nM] | IC50 [2] [nM] |
| --- | --- | --- | --- | --- |
| Cn1cc(NC(=O)c2cccc(C(=O)c3c[nH]c4ncnc(N[C@@H]5CC[C@@H](CO)OC5)c34)c2)cn1 [Compound I-638, 3-(4-(((3R,6S)-6-(hydroxymethyl)tetrahydro-2H-pyran-3-yl)amino)-7H-pyrrolo[2,3-d]pyrimidine-5-carbonyl)-N-(1-methyl-1H-pyrazol-4-yl)benzamide] | 54 | 63 | – | – |
| COCCOc1ccc(C(=O)c2c[nH]c3ncnc(N[C@@H]4CC[C@@H](CO)OC4)c23)cc1 [Compound I-318i, (4-(((3R,6S)-6-(hydroxymethyl)tetrahydro-2H-pyran-3-yl)amino)-7H-pyrrolo[2,3-d]pyrimidin-5-yl)(4-(2-methoxyethoxy)phenyl)methanone] | – | – | 714 | 423 |
| C=CS(=O)(=O)N1CCCC1CNc1ncnc2[nH]cc(C(=O)c3ccc(Oc4ccccc4)cc3Cl)c12 (racemic) [Compound I-326r, (racemic)-(2-chloro-4-phenoxyphenyl)(4-(((1-(vinylsulfonyl)pyrrolidin-2-yl)methyl)amino)-7H-pyrrolo[2,3-d]pyrimidin-5-yl)methanone] | – | – | 419 | 4.33 |
| O=C(c1cc(NC(=O)C2(c3ccccc3)CC2)ccc1Cl)c1c[nH]c2ncnc(N[C@@H]3CC[C@@H](CO)OC3)c12 [Compound I-605, N-(4-chloro-3-(4-(((3R,6S)-6-(hydroxymethyl)tetrahydro-2H-pyran-3-yl)amino)-7H-pyrrolo[2,3-d]pyrimidine-5-carbonyl)phenyl)-1-phenylcyclopropane-1-carboxamide] | – | – | 1860 | 467 |
| Cn1cc(NC(=O)c2ccc(Cl)c(C(=O)c3c[nH]c4ncnc(N[C@@H]5CC[C@@H](CO)OC5)c34)c2)cn1 [Compound I-629, 4-chloro-3-(4-(((3R,6S)-6-(hydroxymethyl)tetrahydro-2H-pyran-3-yl)amino)-7H-pyrrolo[2,3-d]pyrimidine-5-carbonyl)-N-(1-methyl-1H-pyrazol-4-yl)benzamide] | – | – | 804 | 89.5 |
| CC#CC(=O)N1CCCC1CNc1ncnc2[nH]cc(C(=O)c3ccc(Oc4ccccc4)cc3Cl)c12 (racemic) [Compound I-328r, (racemic)-1-(2-(((5-(2-chloro-4-phenoxybenzoyl)-7H-pyrrolo[2,3-d]pyrimidin-4-yl)amino)methyl)pyrrolidin-1-yl)but-2-yn-1-one] | – | – | 18.4 | 0.98 |
| COCCNC(=O)c1ccc(Cl)c(C(=O)c2c[nH]c3ncnc(N[C@@H]4CC[C@@H](CO)OC4)c23)c1 [Compound I-624, 4-chloro-3-(4-(((3R,6S)-6-(hydroxymethyl)tetrahydro-2H-pyran-3-yl)amino)-7H-pyrrolo[2,3-d]pyrimidine-5-carbonyl)-N-(2-methoxyethyl) benzamide] | 53 | – | – | 1210 |
| CC#CC(=O)N1CCCC(Nc2ncnc3[nH]cc(C(=O)c4ccc(Oc5ccccc5)cc4Cl)c23)C1 (racemic) [Compound I-324r, (racemic)-1-(3-((5-(2-chloro-4-phenoxybenzoyl)-7H-pyrrolo[2,3-d]pyrimidin-4-yl)amino)piperidin-1-yl)but-2-yn-1-one] | – | – | 105 | 17.2 |
| CC(=O)N1C[C@H](Nc2ncnc3[nH]cc(C(=O)c4ccc(Oc5ccccc5)cc4Cl)c23)C[C@H]1CO [Compound I-655, 1-((2S,4R)-4-((5-(2-chloro-4-phenoxybenzoyl)-7H-pyrrolo[2,3-d]pyrimidin-4-yl)amino)-2-(hydroxymethyl)pyrrolidin-1-yl)ethan-1-one] | – | – | 52 | 44.5 |
| O=C(Nc1ccc(Cl)c(C(=O)c2c[nH]c3ncnc(N[C@@H]4CC[C@@H](CO)OC4)c23)c1)c1ccccc1 [Compound I-601, N-(4-chloro-3-(4-(((3R,6S)-6-(hydroxymethyl)tetrahydro-2H-pyran-3-yl)amino)-7H-pyrrolo[2,3-d]pyrimidine-5-carbonyl)phenyl)benzamide] | – | – | 116 | 20.9 |
| O=C(c1ccc(Nc2ccccc2)cc1Cl)c1c[nH]c2ncnc(N[C@@H]3CC[C@@H](CO)OC3)c12 [Compound I-650, (2-Chloro-4-(phenylamino)phenyl)(4-(((3R,6S)-6-(hydroxymethyl)tetrahydro-2H-pyran-3-yl)amino)-7H-pyrrolo[2,3-d]pyrimidin-5-yl)methanone] | – | – | 326 | 202 |
| CN1[C@H](CO)CCC[C@@H]1CNc1ncnc2[nH]cc(C(=O)c3ccc(Oc4ccccc4)cc3Cl)c12 (racemic) [Compound I-360e, racemic-cis-(2-chloro-4-phenoxyphenyl)(4-(((6-(hydroxymethyl)-1-methylpiperidin-2-yl)methyl)amino)-7H-pyrrolo[2,3-d]pyrimidin-5-yl)methanone] | – | – | 59.4 | 1.07 |
| O=C(Nc1cccc(C(=O)c2c[nH]c3ncnc(N[C@@H]4CC[C@@H](CO)OC4)c23)c1)c1ccccc1 [Compound I-642, N-(3-(4-(((3R,6S)-6-(hydroxymethyl)tetrahydro-2H-pyran-3-yl)amino)-7H-pyrrolo[2,3-d]pyrimidine-5-carbonyl)phenyl)benzamide] | – | – | 203 | 251 |
| CC(=O)N1CC(Nc2ncnc3[nH]cc(C(=O)c4ccc(Oc5ccccc5)cc4Cl)c23)CCC1CO (racemic) [Compound I-654, rac-1-(5-((5-(2-chloro-4-phenoxybenzoyl)-7H-pyrrolo[2,3-d]pyrimidin-4-yl)amino)-2-(hydroxymethyl)-piperidin-1-yl)ethan-1-one] | – | – | 20.7 | 6.55 |
| O=C(c1ccc(C(=O)N2CCCCC2)cc1Cl)c1c[nH]c2ncnc(N[C@@H]3CC[C@@H](CO)OC3)c12 [Compound I-617, (3-chloro-4-(4-(((3R,6S)-6-(hydroxymethyl)tetrahydro-2H-pyran-3-yl)amino)-7H-pyrrolo[2,3-d]pyrimidine-5-carbonyl)phenyl)(piperidin-1-yl)methanone] | – | – | 48.7 | 16.2 |
| O=C(c1cc(C(=O)N2CCOCC2)ccc1Cl)c1c[nH]c2ncnc(N[C@@H]3CC[C@@H](CO)OC3)c12 [Compound I-612, (4-chloro-3-(4-(((3R,6S)-6-(hydroxymethyl)tetrahydro-2H-pyran-3-yl)amino)-7H-pyrrolo[2,3-d]pyrimidine-5-carbonyl)phenyl)(morpholino) methanone] | 82 | – | – | 1630 |
| CN1CCN(C(=O)c2ccc(C(=O)c3c[nH]c4ncnc(N[C@@H]5CC[C@@H](CO)OC5)c34)c(Cl)c2)CC1 [Compound I-620, (3-chloro-4-(4-(((3R,6S)-6-(hydroxymethyl)tetrahydro-2H-pyran-3-yl)amino)-7H-pyrrolo[2,3-d]pyrimidine-5-carbonyl)phenyl)(4-methylpiperazin-1-yl)methanone] | 70 | – | – | 598 |
| CNC(=O)c1cccc(Oc2ccc(C(=O)c3c[nH]c4ncnc(N[C@@H]5CC[C@@H](CO)OC5)c34)cc2)n1 [Compound I-320, 6-(4-(4-(((3R,6S)-6-(hydroxymethyl)tetrahydro-2H-pyran-3-yl)amino)-7H-pyrrolo[2,3-d]pyrimidine-5-carbonyl)phenoxy)-N-methylpicolinamide] | – | – | 63.1 | 336 |
| CN1C[C@H](CNc2ncnc3[nH]cc(C(=O)c4ccc(Oc5ccccc5)cc4Cl)c23)C[C@H]1CO [Compound I-370e, (2-chloro-4-phenoxyphenyl)(4-((((3S,5S)-5-(hydroxymethyl)-1-methylpyrrolidin-3-yl)methyl)amino)-7H-pyrrolo[2,3-d]pyrimidin-5-yl)methanone] | – | – | 49.8 | 59.5 |
| O=C(Nc1ccncc1)c1ccc(C(=O)c2c[nH]c3ncnc(N[C@@H]4CC[C@@H](CO)OC4)c23)c(Cl)c1 [Compound I-246, 3-chloro-4-(4-(((3R,6S)-6-(hydroxymethyl)tetrahydro-2H-pyran-3-yl)amino)-7H-pyrrolo[2,3-d]pyrimidine-5-carbonyl)-N-(pyridin-4-yl)benzamide] | – | – | 514 | 103 |
| CNC(=O)c1cccc(Oc2ccc(C(=O)c3c[nH]c4ncnc(N[C@@H]5CC[C@@H](CO)OC5)c34)c(Cl)c2)n1 [Compound I-319, 6-(3-chloro-4-(4-(((3R,6S)-6-(hydroxymethyl)tetrahydro-2H-pyran-3-yl)amino)-7H-pyrrolo[2,3-d]pyrimidine-5-carbonyl)phenoxy)-N-methyl picolinamide] | – | – | 127 | 444 |
| C=CS(=O)(=O)N1CCCC(Nc2ncnc3[nH]cc(C(=O)c4ccc(Oc5ccccc5)cc4Cl)c23)C1 (racemic) [Compound I-322r, (racemic)-(2-chloro-4-phenoxyphenyl)(4-((1-(vinylsulfonyl)piperidin-3-yl)amino)-7H-pyrrolo[2,3-d]pyrimidin-5-yl)methanone] | – | – | 98.6 | 10.4 |
| N#Cc1cccc(NC(=O)c2ccc(C(=O)c3c[nH]c4ncnc(N[C@@H]5CC[C@@H](CO)OC5)c34)c(Cl)c2)c1 [Compound I-614, 3-chloro-N-(3-cyanophenyl)-4-(4-(((3R,6S)-6-(hydroxymethyl)tetrahydro-2H-pyran-3-yl)amino)-7H-pyrrolo[2,3-d]pyrimidine-5-carbonyl)benzamide] | – | – | 228 | 142 |
